Data from patent US10413583B2, “Synthetic substrates for enzymes that catalyze reactions of modified cysteines and related methods” (The University of Chicago, priority 2016, dated 2019).

Tests used:
[1] = Water solubility of probes (stated in words); format: physicochemical
[2] = test system: HEK293T cells; assay: Live cell fluorescence imaging and flow cytometry of DPP-2 and DPP-3 in HEK293T cells; format: cell-based, human; conditions: 1 μM DPP-2 for 15 min, microscopy or flow cytometry
Experimental: HEK293T (650,000 cells per dish) cells were plated with 1.5 mL of Dulbecco's Modified Eagle Medium (DMEM) (High Glucose, 10% fetal bovine serum (FBS)) in a 35 mm glass bottom dish (D35-10-1.5-N; Cellvis, Mountain View, Calif., United States of America) 24 hrs prior to imaging. 30 min before the addition of the DPP probe, the cell culture media was removed and cells were washed with 1 mL of Delbecco's phosphate-buffered saline (DPBS). The media was then replaced with 1 mL of DMEM containing 1 μM Hoechst 33342 and either 0.1% DMSO carrier as a control, 1 or 2 μM Palm B, 0.1, 1.0, or 5 μM ML348, and incubated for 30 min at 37° C. and 5% CO2. The media was removed, the cells were washed with 1 mL of Live Cell Imaging Solution (Thermo Fisher Scientific, Waltham, Mass., United States of America), and 1 mL of 1 μM DPP-2 or DPP-3 in Live Cell Imaging Solution was added to each plate. For ML348 0.1, 1.0, or 5 μM was added along with DPP-2 or DPP-3. After incubation for 15 min at 37° C. and 5% CO2, images were obtained on an inverted epi-fluorescence microscope (Olympus IX83; Olympus Corporation, Tokyo, Japan) attached with EMCCD camera (Photometrics EVOLVE™ Delta; Photometrics, Tucson, Ariz., United States of America) with 40× oil objective (N/A 1.3) for DPP-2 (excitation filter 500/20, dichroic chroma 89007, emission filter 535/30, exposure time 200 ms, EM gain 25), Hoechst 33342: (excitation filter 402/15, emission filter 455/50, dichroic chroma 89013, exposure time 30 ms, EM gain 25), and brightfield (exposure time 5 ms, EM gain 5), and for DPP-3 (exposure time 500 ms, EM gain 150), Hoechst 33342: (exposure time 30 ms, EM gain 25), and brightfield (exposure time 20 ms, EM gain 5). Analyses were performed in ImageJ. For data analysis, the average fluorescence intensity per image in each experimental condition was obtained by selecting regions of interest (ROIs) in the brightfield image. For display, the data were normalized to the average fluorescence intensity of the control conditions. Each experiment was repeated at least three separate times with identical results.
Cells were plated on a 10 cm dish with 10 mL of DMEM/High Glucose (10% FBS, 1% P/S, L-Glutamine, Sodium pyruvate) 36-48 hours prior to the day of experiment and maintained at 37° C., 5% CO2 so as to obtain 80-90% confluency. Cells were washed with DPBS and trypsinized with 1 mL 0.05% Trypsin. 5 mL of DMEM/High Glucose (10% FBS, L-Glutamine, Sodium pyruvate) was added and cells were spun down at 1200 rpm for 3 min. Media was discarded and cells were resuspended in 5 mL of Live Cell Imaging Solution and again spun down at 1200 rpm for 3 min. The cells pellets obtained were resuspended in 3-5 mL of Live Cell Imaging Solution and divided into 500 μL aliquots. The aliquots were treated with either 0.2% DMSO carrier or 1 μM of PalmB/ML348 or 1 μM/5 μM of ML349 inhibitor. After 30 min of incubation at room temperature, 1 μL of 2.5 mM DPP-3 in DMSO was added to each aliquot for a final concentration of 5 μM, and the solutions were mixed. After 5 min incubation at room temperature, fluorescence signal in FITC channel was measured for 10000 cells (5000 for HeLa experiments) on a LSR-Fortessa 4-15 HTS (BD digital instrument, 488 nm laser with 530/30 nm filter for FITC; BD, Franklin Lakes, N.J., United States of America). For analyzing DPP2 in HEK293T cells, the aliquots were treated with either 0.2% DMSO carrier or 2 μM of PalmB, 5 or 20 μM of ML348/ML349 and then analyzed by the protocol as mentioned above. Data was analyzed by FlowJo software version 10.0.8. For comparison of A431 starved versus non-starved, parallel 10 cm dishes of A431 cells were plated in 10 mL of DMEM (high glucose, 10% FBS, 1% P/S), and grown for 36 h. The growth media was removed, and replaced by 10 mL of either DMEM (High glucose) with 10% FBS to maintain “growth” conditions, or DMEM (High glucose) without FBS respectively for “starvation” conditions, and incubated for 14 h. […]

[3] = target: T1, APT2 (Homo sapiens, UniProt O95372); assay: In vitro kinetic assay and emission spectra of DPP-1, DPP-2, DPP-3 with purified APT2 (with detergent); format: biochemical
T1 construct: His-tag; made in house; host or cells: E. coli ROSETTA DE3
Experimental: (§1) 50 μL of 7.5 μM DPP1-3 in HEPES (20 mM, pH=7.4, 150 mM NaCl, 0.1% Triton X-100) were added to a 384-well black flat bottom plate (Corning Life Sciences, Corning, N.Y., United States of America) and placed in an Infinite M200 Pro (Tecan, Mannedorf, Switzerland) plate reader at 37° C. for 5 min to warm. 25 μL of either 4-(2-hydroxyethyl)-1-piperazineethanesulfonic acid (HEPES) buffer alone or HEPES buffer containing 150 nM APT1 or APT2, was added using a multi-channel pipette, resulting in a final concentration of 5 μM DPP1-3 and 50 nM APT1 or APT2. Fluorescence intensities (λex 490/9 nm, λem 545/20 nm, Gain 70, No. of flashes 25, Integration time 100 μs and Z-position 20000 μm) were measured at 30 second (s) time intervals for 20 min. At the end of 20 min kinetic run, emission spectra were obtained (λex 485 nm, Aem510-700 nm, Gain 100, No. of flashes 25, Integration time 100 μs and Z-position 20,000 μm).

[4] = target: T2, APT1 (Homo sapiens, UniProt O75608); assay: In vitro kinetic assay and emission spectra of DPP-1, DPP-2, DPP-3 with purified APT1 (with detergent); format: biochemical
T2 construct: His-tag; made in house; host or cells: E. coli ROSETTA DE3
Experimental: as §1

T2 sequence (O75608 whole entry): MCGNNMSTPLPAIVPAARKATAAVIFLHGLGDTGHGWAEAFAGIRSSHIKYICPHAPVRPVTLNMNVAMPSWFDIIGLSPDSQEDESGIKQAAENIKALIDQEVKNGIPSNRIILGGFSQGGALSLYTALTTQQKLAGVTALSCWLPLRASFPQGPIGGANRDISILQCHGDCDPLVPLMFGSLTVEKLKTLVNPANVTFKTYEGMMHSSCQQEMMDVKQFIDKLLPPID
T1 sequence (O95372 whole entry): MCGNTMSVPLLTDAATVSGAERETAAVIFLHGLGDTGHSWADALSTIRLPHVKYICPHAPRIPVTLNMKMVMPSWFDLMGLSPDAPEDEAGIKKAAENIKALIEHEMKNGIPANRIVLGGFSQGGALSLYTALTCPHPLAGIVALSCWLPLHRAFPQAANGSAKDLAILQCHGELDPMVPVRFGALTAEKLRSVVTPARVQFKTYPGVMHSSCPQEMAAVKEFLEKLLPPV

CCCCCCCC(=O)SC[C@@H](C(=O)NC)N(C)C(=O)Oc1ccc2c(c1)Oc1cc(N(C)C)ccc1C21OC(=O)c2ccccc21 (some centres unmarked) [DPP-2]
water solubility [1]: water soluble
probe fluorescent signal in live cells [2]: robust intracellular fluorescent signal
performance as substrate [3]: slightly better than DPP-1
enhancement in fluorescence signal ([4]; 5 μM probe, 50 nM APT1, 20 min): 200 fold
performance as substrate / reaction kinetics ([4]; purified APT1): slightly better than DPP-1
